Laboratory results published in publication PMC4076210, “Discovery of Novel AKT Inhibitors with Enhanced Anti-Tumor Effects in Combination with the MEK Inhibitor” (PLoS ONE, 2014).
Like-named read-outs stand apart in the source and are kept apart here.

Columns and labels:
Assay type in all cases: biochemical
[1] = target: T1, IKKβ(h) (Homo sapiens, UniProt O14920); assay: Kinase panel
T1 construct: purchased Millipore KinaseProfiler
T1 sequence (O14920 1-756): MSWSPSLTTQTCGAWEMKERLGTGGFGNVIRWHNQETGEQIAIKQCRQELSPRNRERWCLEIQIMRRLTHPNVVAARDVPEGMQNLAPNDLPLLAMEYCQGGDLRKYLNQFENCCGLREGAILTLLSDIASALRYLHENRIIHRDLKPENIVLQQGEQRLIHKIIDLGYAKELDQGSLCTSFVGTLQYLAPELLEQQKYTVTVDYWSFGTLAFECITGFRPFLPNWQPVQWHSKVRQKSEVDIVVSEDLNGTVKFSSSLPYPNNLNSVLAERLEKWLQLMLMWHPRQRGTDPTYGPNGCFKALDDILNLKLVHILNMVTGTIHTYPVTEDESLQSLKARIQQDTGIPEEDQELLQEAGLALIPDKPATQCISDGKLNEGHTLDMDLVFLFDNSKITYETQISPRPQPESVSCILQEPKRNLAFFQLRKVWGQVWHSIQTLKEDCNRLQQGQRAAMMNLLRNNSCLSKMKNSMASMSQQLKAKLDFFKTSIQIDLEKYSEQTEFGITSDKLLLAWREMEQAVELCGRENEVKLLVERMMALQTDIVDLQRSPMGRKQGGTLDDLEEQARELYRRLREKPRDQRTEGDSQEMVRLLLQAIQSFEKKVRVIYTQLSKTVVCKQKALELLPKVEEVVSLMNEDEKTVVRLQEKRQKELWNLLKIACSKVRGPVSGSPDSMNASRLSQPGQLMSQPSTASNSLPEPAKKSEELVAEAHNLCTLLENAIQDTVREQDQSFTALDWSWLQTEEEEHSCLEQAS

[2] = target: T2, cKit(V654A)(h) (Homo sapiens, UniProt P10721, V654A); assay: Kinase panel
T2 construct: purchased Millipore KinaseProfiler
T2 sequence (P10721 26-976 V654A): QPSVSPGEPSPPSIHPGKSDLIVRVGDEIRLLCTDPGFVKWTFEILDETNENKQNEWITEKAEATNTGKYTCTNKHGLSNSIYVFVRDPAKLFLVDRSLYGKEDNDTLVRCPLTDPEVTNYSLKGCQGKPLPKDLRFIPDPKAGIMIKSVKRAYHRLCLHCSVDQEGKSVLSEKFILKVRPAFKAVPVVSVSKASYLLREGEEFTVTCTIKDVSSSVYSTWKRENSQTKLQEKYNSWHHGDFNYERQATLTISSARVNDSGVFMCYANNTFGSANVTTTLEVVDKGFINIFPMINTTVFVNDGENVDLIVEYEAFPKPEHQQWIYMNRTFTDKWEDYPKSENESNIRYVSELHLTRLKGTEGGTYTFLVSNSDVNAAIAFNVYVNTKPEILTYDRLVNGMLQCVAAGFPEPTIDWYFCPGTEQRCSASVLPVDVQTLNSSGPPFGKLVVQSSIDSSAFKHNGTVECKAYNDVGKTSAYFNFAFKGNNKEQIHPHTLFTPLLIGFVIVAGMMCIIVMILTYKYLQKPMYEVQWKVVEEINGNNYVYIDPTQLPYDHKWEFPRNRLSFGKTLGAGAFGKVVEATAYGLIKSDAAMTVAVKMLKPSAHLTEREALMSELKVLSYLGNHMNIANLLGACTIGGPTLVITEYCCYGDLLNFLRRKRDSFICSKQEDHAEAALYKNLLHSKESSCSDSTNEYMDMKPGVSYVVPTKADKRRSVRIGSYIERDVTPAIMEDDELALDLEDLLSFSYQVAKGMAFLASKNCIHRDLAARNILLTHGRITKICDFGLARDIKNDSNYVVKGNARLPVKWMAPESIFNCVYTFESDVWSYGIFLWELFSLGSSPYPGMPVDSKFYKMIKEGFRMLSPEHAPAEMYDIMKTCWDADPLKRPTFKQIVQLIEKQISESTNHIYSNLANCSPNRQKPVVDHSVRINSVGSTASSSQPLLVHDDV

[3] = target: T3, Rsk2(h) (Homo sapiens, UniProt P51812); assay: Kinase panel
T3 construct: purchased Millipore KinaseProfiler
T3 sequence (P51812 whole entry): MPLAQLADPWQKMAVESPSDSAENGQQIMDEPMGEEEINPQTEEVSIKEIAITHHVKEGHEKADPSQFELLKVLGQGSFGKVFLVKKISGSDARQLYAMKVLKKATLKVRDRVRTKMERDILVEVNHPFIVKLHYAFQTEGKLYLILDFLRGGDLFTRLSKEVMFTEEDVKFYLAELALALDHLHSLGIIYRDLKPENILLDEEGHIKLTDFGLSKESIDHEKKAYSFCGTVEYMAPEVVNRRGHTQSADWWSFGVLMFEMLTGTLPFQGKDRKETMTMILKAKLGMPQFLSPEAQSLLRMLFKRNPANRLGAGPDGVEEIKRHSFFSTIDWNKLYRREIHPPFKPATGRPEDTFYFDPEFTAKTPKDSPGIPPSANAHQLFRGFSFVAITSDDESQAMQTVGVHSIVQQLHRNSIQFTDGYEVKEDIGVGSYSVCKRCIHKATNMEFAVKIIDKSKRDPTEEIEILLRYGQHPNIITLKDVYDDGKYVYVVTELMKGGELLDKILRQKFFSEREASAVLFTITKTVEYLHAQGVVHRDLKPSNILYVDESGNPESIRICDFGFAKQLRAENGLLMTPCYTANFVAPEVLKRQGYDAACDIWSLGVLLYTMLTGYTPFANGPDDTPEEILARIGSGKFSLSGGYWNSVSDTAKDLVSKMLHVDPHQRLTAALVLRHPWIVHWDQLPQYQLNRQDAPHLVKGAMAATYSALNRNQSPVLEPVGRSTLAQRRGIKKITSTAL

[4] = target: PKCη (Homo sapiens, UniProt P24723); assay: Kinase IC50 assay
Sequence of PKCη (P24723 whole entry): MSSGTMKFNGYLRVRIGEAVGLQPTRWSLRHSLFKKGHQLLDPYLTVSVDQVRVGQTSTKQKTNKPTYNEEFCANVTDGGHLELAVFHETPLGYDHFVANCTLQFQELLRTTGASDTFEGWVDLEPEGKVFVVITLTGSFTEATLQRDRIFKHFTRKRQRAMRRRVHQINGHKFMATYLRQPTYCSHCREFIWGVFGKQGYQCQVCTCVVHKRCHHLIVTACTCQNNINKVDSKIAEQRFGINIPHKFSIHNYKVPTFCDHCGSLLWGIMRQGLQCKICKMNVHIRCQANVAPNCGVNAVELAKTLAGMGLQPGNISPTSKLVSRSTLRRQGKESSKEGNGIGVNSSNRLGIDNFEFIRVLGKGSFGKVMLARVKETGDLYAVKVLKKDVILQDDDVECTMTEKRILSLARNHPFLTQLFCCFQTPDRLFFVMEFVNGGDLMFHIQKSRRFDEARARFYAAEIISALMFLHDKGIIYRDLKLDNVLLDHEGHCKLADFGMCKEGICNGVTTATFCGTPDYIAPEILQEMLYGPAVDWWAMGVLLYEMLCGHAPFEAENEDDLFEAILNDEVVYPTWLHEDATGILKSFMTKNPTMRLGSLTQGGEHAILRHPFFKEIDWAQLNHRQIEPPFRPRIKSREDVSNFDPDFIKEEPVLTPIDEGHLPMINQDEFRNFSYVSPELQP

[5] = target: T4, Abl(h) (Homo sapiens, UniProt P00519); assay: Kinase panel
T4 construct: purchased Millipore KinaseProfiler
T4 sequence (P00519 whole entry): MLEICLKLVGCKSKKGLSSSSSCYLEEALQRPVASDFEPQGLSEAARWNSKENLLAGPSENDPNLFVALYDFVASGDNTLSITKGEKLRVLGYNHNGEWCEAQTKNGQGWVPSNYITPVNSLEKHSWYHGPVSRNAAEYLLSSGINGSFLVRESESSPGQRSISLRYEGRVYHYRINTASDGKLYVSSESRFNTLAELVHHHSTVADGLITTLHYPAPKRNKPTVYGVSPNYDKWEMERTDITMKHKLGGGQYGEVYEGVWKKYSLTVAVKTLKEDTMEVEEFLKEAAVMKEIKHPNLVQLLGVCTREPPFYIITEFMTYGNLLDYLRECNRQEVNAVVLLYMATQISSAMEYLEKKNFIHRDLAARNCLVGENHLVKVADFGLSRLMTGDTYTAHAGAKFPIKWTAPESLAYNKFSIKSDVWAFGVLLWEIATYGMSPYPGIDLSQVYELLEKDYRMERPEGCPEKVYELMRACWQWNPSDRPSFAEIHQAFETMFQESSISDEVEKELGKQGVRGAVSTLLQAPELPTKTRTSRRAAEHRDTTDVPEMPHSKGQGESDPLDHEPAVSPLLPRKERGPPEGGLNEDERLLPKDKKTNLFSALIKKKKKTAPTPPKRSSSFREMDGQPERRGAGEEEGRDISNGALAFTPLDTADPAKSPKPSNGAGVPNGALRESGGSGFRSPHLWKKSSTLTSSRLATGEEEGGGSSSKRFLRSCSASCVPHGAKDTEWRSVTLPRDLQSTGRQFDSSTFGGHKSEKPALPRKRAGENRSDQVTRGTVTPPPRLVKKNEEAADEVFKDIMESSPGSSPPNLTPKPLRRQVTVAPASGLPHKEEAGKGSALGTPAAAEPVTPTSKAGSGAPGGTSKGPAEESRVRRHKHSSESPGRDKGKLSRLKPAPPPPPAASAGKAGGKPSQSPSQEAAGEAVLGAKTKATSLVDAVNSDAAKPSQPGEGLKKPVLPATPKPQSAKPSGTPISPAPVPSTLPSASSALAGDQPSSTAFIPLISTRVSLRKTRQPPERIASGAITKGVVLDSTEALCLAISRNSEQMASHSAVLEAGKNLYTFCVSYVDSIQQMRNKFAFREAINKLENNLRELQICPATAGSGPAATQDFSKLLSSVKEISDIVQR

[6] = target: T5, JNK1α1(h) (Homo sapiens, UniProt P45983); assay: Kinase panel
T5 construct: purchased Millipore KinaseProfiler
T5 sequence (P45983 1-384 isoform P45983-2): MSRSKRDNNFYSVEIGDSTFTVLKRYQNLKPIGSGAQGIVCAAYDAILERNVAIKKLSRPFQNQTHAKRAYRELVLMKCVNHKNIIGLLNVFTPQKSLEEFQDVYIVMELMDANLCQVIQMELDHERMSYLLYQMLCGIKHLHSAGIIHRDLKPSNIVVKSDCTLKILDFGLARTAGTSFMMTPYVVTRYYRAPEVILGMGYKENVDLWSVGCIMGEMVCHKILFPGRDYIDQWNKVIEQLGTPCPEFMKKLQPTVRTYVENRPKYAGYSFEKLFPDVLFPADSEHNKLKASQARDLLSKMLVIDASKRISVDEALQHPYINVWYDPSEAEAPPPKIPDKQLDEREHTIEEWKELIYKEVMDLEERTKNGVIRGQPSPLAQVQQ

[7] = target: T6, Tie2(R849W)(h) (Homo sapiens, UniProt Q02763, R849W); assay: Kinase panel
T6 construct: purchased Millipore KinaseProfiler
T6 sequence (Q02763 23-1124 R849W): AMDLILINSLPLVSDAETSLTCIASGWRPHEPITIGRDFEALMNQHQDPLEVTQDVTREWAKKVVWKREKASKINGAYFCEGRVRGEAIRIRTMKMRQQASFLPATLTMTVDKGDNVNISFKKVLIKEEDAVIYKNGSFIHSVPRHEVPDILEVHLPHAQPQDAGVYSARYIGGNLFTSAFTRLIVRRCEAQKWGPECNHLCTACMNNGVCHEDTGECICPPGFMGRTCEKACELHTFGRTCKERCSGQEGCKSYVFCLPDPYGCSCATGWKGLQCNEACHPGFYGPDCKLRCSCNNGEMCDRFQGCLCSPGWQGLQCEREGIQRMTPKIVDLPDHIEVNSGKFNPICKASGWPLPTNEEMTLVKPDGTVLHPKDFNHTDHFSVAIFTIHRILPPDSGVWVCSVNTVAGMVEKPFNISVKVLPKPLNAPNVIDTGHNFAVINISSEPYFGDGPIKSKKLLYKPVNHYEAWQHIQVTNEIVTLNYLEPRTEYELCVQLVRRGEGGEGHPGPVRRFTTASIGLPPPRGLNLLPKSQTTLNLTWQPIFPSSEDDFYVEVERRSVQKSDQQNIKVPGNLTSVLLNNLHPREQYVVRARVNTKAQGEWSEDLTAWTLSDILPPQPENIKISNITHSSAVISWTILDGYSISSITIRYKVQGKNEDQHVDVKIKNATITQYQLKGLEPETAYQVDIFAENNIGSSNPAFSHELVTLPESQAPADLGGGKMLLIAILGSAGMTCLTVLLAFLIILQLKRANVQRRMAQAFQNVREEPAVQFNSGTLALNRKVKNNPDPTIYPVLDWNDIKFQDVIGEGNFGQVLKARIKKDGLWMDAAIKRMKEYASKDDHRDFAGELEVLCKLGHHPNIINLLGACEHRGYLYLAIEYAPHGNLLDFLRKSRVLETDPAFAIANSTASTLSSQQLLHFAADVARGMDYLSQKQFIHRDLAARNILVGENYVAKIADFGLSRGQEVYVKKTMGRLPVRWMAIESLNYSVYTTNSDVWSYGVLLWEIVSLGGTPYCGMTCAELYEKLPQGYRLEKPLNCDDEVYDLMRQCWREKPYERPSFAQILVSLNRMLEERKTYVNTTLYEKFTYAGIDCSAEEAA

[8] = target: T7, PKCε(h) (Homo sapiens, UniProt Q02156); assay: Kinase panel
T7 construct: purchased Millipore KinaseProfiler
T7 sequence (Q02156 1-737): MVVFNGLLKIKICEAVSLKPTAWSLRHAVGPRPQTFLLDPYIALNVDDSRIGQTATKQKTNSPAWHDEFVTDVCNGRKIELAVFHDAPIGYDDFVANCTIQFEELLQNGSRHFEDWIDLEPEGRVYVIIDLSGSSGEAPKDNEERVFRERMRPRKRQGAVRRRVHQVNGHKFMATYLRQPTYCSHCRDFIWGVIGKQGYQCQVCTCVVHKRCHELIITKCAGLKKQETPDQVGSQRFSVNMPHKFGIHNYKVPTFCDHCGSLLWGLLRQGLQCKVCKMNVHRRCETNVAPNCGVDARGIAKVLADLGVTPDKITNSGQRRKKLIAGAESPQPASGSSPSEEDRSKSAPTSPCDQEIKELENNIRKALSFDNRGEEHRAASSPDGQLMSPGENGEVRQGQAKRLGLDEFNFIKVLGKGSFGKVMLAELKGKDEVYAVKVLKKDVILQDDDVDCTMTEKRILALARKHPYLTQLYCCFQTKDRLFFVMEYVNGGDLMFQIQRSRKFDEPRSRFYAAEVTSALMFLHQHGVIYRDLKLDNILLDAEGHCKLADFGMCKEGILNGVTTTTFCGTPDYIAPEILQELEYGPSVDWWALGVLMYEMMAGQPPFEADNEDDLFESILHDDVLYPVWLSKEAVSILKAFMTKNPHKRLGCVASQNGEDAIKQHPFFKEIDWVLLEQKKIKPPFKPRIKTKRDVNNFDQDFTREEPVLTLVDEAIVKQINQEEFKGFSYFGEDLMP

Cn1ncc(Cl)c1-c1cc(C(=O)N[C@H](CN)Cc2cccc(F)c2)sc1Cl [GSK2110183]
inhibition at 0.5 µM [1]: 5% | inhibition at 10 µM [1]: 18% | inhibition at 0.5 µM [2]: -9% | inhibition at 10 µM [2]: -9% | inhibition at 0.5 µM [3]: 63% | inhibition at 10 µM [3]: 97% | IC50 [4]: 210 nM | inhibition at 0.5 µM [5]: 8% | inhibition at 10 µM [5]: 4% | inhibition at 0.5 µM [6]: -2% | inhibition at 10 µM [6]: 13% | inhibition at 0.5 µM [7]: -8% | inhibition at 10 µM [7]: -9% | inhibition at 0.5 µM [8]: 19% | inhibition at 10 µM [8]: 80%

Cn1ncc(Cl)c1-c1cc(C(=O)N[C@H](CN)Cc2ccc(F)c(F)c2)oc1Cl [GSK2141795]
inhibition at 0.5 µM ([1]; 0.5 µM, read-out: % Inhibition): -2% | inhibition at 10 µM ([1]; 10 µM, read-out: % Inhibition): 13% | inhibition at 0.5 µM ([2]; 0.5 µM, read-out: % Inhibition): -2% | inhibition at 10 µM ([2]; 10 µM, read-out: % Inhibition): -3% | inhibition at 0.5 µM ([3]; 0.5 µM, read-out: % Inhibition): 73% | inhibition at 10 µM ([3]; 10 µM, read-out: % Inhibition): 100% | IC50 [4]: 49 nM | inhibition at 0.5 µM ([5]; 0.5 µM, read-out: % Inhibition): 12% | inhibition at 10 µM ([5]; 10 µM, read-out: % Inhibition): 13% | inhibition at 0.5 µM ([6]; 0.5 µM, read-out: % Inhibition): -9% | inhibition at 10 µM ([6]; 10 µM, read-out: % Inhibition): -5% | inhibition at 0.5 µM ([7]; 0.5 µM, read-out: % Inhibition): -8% | inhibition at 10 µM ([7]; 10 µM, read-out: % Inhibition): 11% | inhibition at 0.5 µM ([8]; 0.5 µM, read-out: % Inhibition): 32% | inhibition at 10 µM ([8]; 10 µM, read-out: % Inhibition): 81%
